Experimental data published in article PMC13696528, “Combined Immune‐Peptide Nanofiber with HSP70/AKT/mTOR Axis Blockade Enhances Photothermal Immunotherapy, Inhibiting Tumor Growth and Recurrence” (Advanced Science, 2026).

Experiments:
CT26 cells = assay: Colony formation assay after PTIT; assay type: cell-based, mouse; conditions: PSP@IR-CF3 + NIR plus VER-155008 (0.2 μM) or Rapa (10 nM), 14 days, n = 3
Protocol: CT26 cells were harvested and prepared as a single-cell suspension. […] Following the indicated treatments, cells were cultured under standard conditions (37 °C, 5% CO₂) for 14 days until visible colonies had formed.
The culture medium was then removed, and the cells were gently washed with PBS. Colonies were fixed with 4% paraformaldehyde for 10–15 min and stained with crystal violet for 10–20 min. Excess dye was removed by washing with distilled water, and the plates were air-dried. Colonies were quantified using ImageJ software (RRID:SCR_003070).

[1] = system: CT26-Luc tumor-bearing mice; assay: In vivo recurrence study with HSP70 inhibition; design: species or system mouse; conditions: combined with PTIT (PSP@IR-CF3 + NIR), VER-155008 20 mg kg⁻¹ d⁻¹ i.p. 7 days, n = 10, 28 days
Protocol: CT26-Luc cells were cultured under standard conditions and harvested during the logarithmic growth phase. BALB/c mice were subcutaneously inoculated with CT26-Luc cells to establish tumor-bearing models.
In the combination group, the HSP70 inhibitor VER-155008 was administered via intraperitoneal injection at a dose of 20 mg kg⁻¹ d⁻¹ for 7 consecutive days beginning immediately after NIR irradiation. Tumor growth was monitored regularly, and mice were followed for 28 days after treatment to evaluate tumor recurrence. Tumor recurrence was defined as the reappearance of measurable tumor growth at the original treatment site following initial tumor regression.

SMILES: CO[C@H]1C[C@@H]2CC[C@@H](C)[C@@](O)(O2)C(=O)C(=O)N2CCCC[C@H]2C(=O)O[C@H]([C@H](C)C[C@@H]2CC[C@@H](O)[C@H](OC)C2)CC(=O)[C@H](C)/C=C(\C)[C@@H](O)[C@@H](OC)C(=O)[C@H](C)C[C@H](C)/C=C/C=C/C=C/1C [Rapamycin, rapamycin]
- colony formation and clonogenic recovery after PTIT (CT26 cells): reduced colony formation and impaired clonogenic recovery

SMILES: N#Cc1ccc(COC[C@H]2O[C@@H](n3c(NCc4ccc(Cl)c(Cl)c4)nc4c(N)ncnc43)[C@H](O)[C@@H]2O)cc1 [VER-155008]
- colony formation and clonogenic recovery after PTIT (CT26 cells): reduced colony formation and impaired clonogenic recovery
- recurrent tumors [1]: no recurrent tumors
